# Reference: patent US7575889B2, “Compound combinations for inhibiting cell division and methods for their identification and use” (President and Fellows of Harvard College, priority 2001, dated 2009)
# Like-named read-outs stand apart in the source and are kept apart here.
# Experiments:
# [1] = tested on: E. coli DRC39 (ΔacrAB::kan); conditions: for MIC: E. coli DRC39 (ΔacrAB::kan), MIC99, broth dilution
# [2] = tested on: E. coli strain DRC39; experiment: Combination anti-bacterial treatment at sub-MIC concentrations, growth of DRC39; type: cell-based; conditions: for reduction of the MIC when combined with sub-MIC 26E-10: DRC39
# Description: Cell growth was assessed by visual inspection of cells incubated in culture tubes in this experiment and in the second, third, and fourth experiments described in this Example. In the fifth experiment growth was measured by reading optical density (OD600) using a multiwell plate reader. Cells were inoculated at a low concentration (1-2×10^5 cells/ml), such that the medium appeared clear.
# [3] = molecular target: FtsZ GTPase activity (Escherichia coli, UniProt P0A9A6); conditions: at the concentrations tested
# [4] = molecular target: FtsZ protofilaments (Escherichia coli, UniProt P0A9A6); conditions: for effect on FtsZ polymers (class of inhibitor): electron micrographs, FIGS. 13-15
# [5] = molecular target: M. tuberculosis FtzZ (FtsZMt) GTPase (Mycobacterium tuberculosis, UniProt P9WN95); experiment: Malachite green-phosphomolybdate assay of FtsZ GTPase activity (M. tuberculosis FtsZ); type: biochemical; conditions: 5 min preincubation at 30° C., 1 mM GTP, averages from three determinations
# [6] = tested on: E. coli MC1000 (wild-type); experiment: MIC, broth dilution, E. coli MC1000; conditions: MIC99, broth dilution
# [7] = tested on: Clostridium perfringens; type: cell-based
# [8] = tested on: DRC40/pBR-ftsZ+ cells; experiment: MIC and growth/phenotype, DRC40 with wild-type ftsZ in trans; type: cell-based, E. coli
# [9] = tested on: FtsZ ring assembly in E. coli DRC39 cells; experiment: FtsZ ring assembly in vivo (FtsZ-GFP fluorescence microscopy) in DRC39 cells; type: cell-based
# [10] = tested on: B. cereus; experiment: Killing of B. cereus; type: cell-based
# [11] = tested on: E. coli DRC42 (DRC39 recA::cat); experiment: MIC, E. coli DRC42
# [12] = tested on: E. coli DRC40 (DRC39 ftsZ84); experiment: MIC and growth/phenotype, E. coli DRC40
# [13] = tested on: gram-negative and gram-positive bacteria; experiment: Antibacterial activity against gram-negative and gram-positive bacteria; type: cell-based
# Description: FIG. 19 is a table illustrating the minimum inhibitory concentrations of FtsZ GTPase inhibitory compounds identified in vitro. The compounds were tested against a variety of gram-negative and gram-positive bacteria.
# Sequence of FtsZ GTPase activity (P0A9A6 whole entry): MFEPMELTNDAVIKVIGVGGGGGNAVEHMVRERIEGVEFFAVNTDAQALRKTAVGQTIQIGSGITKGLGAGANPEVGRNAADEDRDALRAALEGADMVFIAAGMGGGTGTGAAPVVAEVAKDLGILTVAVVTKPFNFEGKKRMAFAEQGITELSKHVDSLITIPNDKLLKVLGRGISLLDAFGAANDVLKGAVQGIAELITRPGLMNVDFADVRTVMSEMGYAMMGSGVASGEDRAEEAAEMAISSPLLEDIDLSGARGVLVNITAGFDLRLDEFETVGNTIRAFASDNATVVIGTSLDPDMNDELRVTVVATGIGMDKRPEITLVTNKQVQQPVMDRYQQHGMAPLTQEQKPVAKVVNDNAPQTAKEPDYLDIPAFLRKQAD
# Sequence of FtsZ protofilaments (P0A9A6 whole entry): as above
# Sequence of M. tuberculosis FtzZ (FtsZMt) GTPase (P9WN95 whole entry): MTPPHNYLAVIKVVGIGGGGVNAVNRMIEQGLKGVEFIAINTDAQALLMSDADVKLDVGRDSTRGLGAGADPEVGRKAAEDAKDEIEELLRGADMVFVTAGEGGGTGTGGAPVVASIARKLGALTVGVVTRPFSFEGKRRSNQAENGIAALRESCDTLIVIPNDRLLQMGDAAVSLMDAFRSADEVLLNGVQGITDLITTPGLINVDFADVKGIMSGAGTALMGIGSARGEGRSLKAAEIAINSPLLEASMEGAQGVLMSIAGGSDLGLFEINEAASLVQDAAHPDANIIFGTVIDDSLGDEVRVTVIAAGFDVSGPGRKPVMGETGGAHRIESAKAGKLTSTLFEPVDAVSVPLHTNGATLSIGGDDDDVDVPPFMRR
compound,measurement,setting,value
CCN(CC)CCNc1nc(C=Cc2ccc(Cl)cc2)nc2cc3ccccc3cc12 [16L-09],MIC,[1],10 µM
same,reduction of the MIC when combined with sub-MIC 26E-10,[2],4 fold
same,effect on FtsZ GTPase activity in vitro,[3],inhibit FtsZ GTPase activity
same,effect on FtsZ GTPase activity in vitro,[3]; listed as 16-L09,reproducibly and robustly inhibited FtsZ GTPase activity
same,effect on FtsZ polymers (class of inhibitor),[4],cause bundling of FtsZ protofilaments
CC[n+]1c(/C=C/N(C)c2ccccc2)n(-c2ccccc2)c2ccc(-c3nc4ccccc4s3)cc21 [27F-02],MIC,[1],5 µM
same,IC50,[5],70 µM
same,reduction of the MIC when combined with sub-MIC 26E-10,[2],5 fold
same,effect on FtsZ GTPase activity in vitro,[3],inhibit FtsZ GTPase activity
same,effect on FtsZ GTPase activity in vitro,[3]; listed as 27-F02,reproducibly and robustly inhibited FtsZ GTPase activity
same,effect on FtsZ protofilament assembly in vitro,[4],destabilizers of FtsZ protofilament assembly
same,effect on FtsZ polymers (class of inhibitor),[4],cause bundling of FtsZ protofilaments
CC[n+]1ccc(/C=C/N(C)c2ccccc2)c2ccccc21.[I-] [26E-10],growth and morphology,"[1]; DRC39, 5 μM, 30° C.",mixture of filaments of varying lengths and short cells present at a low density
same,MIC,[1],10 µM
same,MIC,[6],>40 µM
same,phenotype and growth,"[7]; 80 μM, anaerobic conditions",filamentation phenotype in the presence of 80 μM 26E-10 without any overt effect on cell growth
same,phenotype,[7]; Clostridium perfringens,filaments
same,amount of growth relative to the absence of compound,"[2]; singly, 5 μM, OD600",41%
same,growth inhibition,"[2]; singly, 5 μM, OD600",59%
same,cell density and filamentation versus DRC40/pBR322,"[8]; DRC40/pBR-ftsZ+, 5 μM",higher cell density and less pronounced filamentation
same,MIC,[8]; DRC40 with wild-type ftsZ provided in trans (pBR-ftsZ+),10 µM
same,cell length (filamentation),"[9]; 10 μM (MIC), DRC39, within 60 min of treatment",~4 ×
same,Z-rings in elongated cells,"[9]; 10 μM, DRC39, 60 min",markedly reduced in number and diminished in intensity
same,Z-rings after 90 min treatment,"[9]; DRC39, 90 min",most of the cells were devoid of distinct Z-rings
same,killing of B. cereus,[10],efficiently killed
same,MIC,[11],10 µM
same,growth,"[12]; DRC40/pBR322, 5 μM, 30° C.",absolutely no growth
same,MIC,"[12]; E. coli DRC40 (DRC39 ftsZ84), slight turbidity believed to be unlysed filaments",2.5 µM
Nc1c(C=Cc2cc3cc(C4=NCCN4)ccc3o2)[nH]c2cc(C3=NCCN3)ccc12 [58P-18],MIC,[1],80 µM
same,reduction of the MIC when combined with sub-MIC 26E-10,[2],≥ 2 fold
same,FtsZ ring in treated cells,"[9]; 40 μM, DRC39 cells",none of the treated cells appear to contain a medial FtsZ ring
same,time to start of cell elongation,"[9]; 40 μM, DRC39 cells",≤ 60 min
same,effect on FtsZ GTPase activity in vitro,[3],inhibit FtsZ GTPase activity
same,effect on FtsZ GTPase activity in vitro,[3]; listed as 58-P18,reproducibly and robustly inhibited FtsZ GTPase activity
same,effect on FtsZ polymers (class of inhibitor),[4],cause bundling of FtsZ protofilaments
Oc1ccc(Cl)cc1Cc1cc(Cl)cc(Cc2cc(Cl)ccc2O)c1O [27D-12],MIC,[1],20 µM
same,activity against gram positive and gram negative bacteria,[13],effective against gram positive bacteria at very low concentrations and also kills gram negative species
same,effect on FtsZ GTPase activity in vitro,[3],inhibit FtsZ GTPase activity
same,effect on FtsZ GTPase activity in vitro,[3]; listed as 27-D12,reproducibly and robustly inhibited FtsZ GTPase activity
same,effect on FtsZ polymers (class of inhibitor),[4],dose dependent destabilizing effect on the polymers
CCN1C(=Cc2ccc3c4ccccc4ccc3[n+]2CC)C=Cc2ccccc21.Cc1ccc(S(=O)(=O)[O-])cc1 [7N-12],amount of growth relative to the absence of compound,"[2]; individually, 0.3 μM",98%
same,growth inhibition,"[2]; individually, 0.3 μM",2%
same,effect on FtsZ GTPase activity in vitro,[3],inhibit FtsZ GTPase activity
CCN1C(=Cc2ccc3ccccc3[n+]2CC)C=Cc2ccccc21.[Cl-] [3G-09],MIC,[1],6 µM
same,amount of growth relative to the absence of compound,"[2]; alone, 0.375 μM, OD600",92%
same,growth inhibition,"[2]; alone, 0.375 μM, OD600",8%
same,effect on FtsZ GTPase activity in vitro,[3],apparently do not affect FtsZ GTPase activity
C=CCOc1c(Br)cc(S(=O)(=O)c2cc(Br)c(O)c(Br)c2)cc1Br [18M-04],IC50,[5],> 100 µM
same,activity against gram positive and gram negative bacteria,[13],kills gram positives
same,effect on FtsZ GTPase activity in vitro,[3],reproducibly and robustly inhibited FtsZ GTPase activity
same,effect on FtsZ protofilament assembly in vitro,[4],destabilizers of FtsZ protofilament assembly
same,effect on FtsZ polymers (class of inhibitor),[4],dose dependent destabilizing effect on the polymers
